Data reported in PubChem BioAssay AID248 (DTP/NCI, 2004).
Inconclusive results and toxic doses are left out. Rule as the data show it: active = T/C of 150% or more; inactive = T/C below 125%.

System: L1210 leukemia ip in BDF1 mice, survival T/C
Test: NCI In Vivo Anticancer Drug Screen. Data for tumor model L1210 Leukemia (intraperitoneal) in B6D2F1 (BDF1) mice
Settings: endpoint: mean survival time, higher = longer survival
Outline: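 Tumor was transplanted into mice, which were then dosed with test compound or vehicle alone. Survival was recorded for each group, and the treated figure was expressed relative to the control figure.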

[1] = dose: 100.0 mg/kg/injection, schedule: Q01DX001 (ip), vehicle: Klucel (hydroxypropylcellulose) (HPC)
[2] = dose: 200.0 mg/kg/injection, schedule: Q01DX001 (ip), vehicle: Klucel (hydroxypropylcellulose) (HPC)
[3] = dose: 100.0 mg/kg/injection, schedule: Q04DX002 (ip), vehicle: Klucel (hydroxypropylcellulose) (HPC)
[4] = dose: 200.0 mg/kg/injection, schedule: Q04DX002 (ip), vehicle: Klucel (hydroxypropylcellulose) (HPC)
[5] = dose: 400.0 mg/kg/injection, schedule: Q04DX002 (ip), vehicle: Klucel (hydroxypropylcellulose) (HPC)
[6] = dose: 100.0 mg/kg/injection, schedule: Q01DX001 (ip), vehicle: saline
[7] = dose: 200.0 mg/kg/injection, schedule: Q01DX001 (ip), vehicle: saline
[8] = dose: 400.0 mg/kg/injection, schedule: Q01DX001 (ip), vehicle: saline
[9] = dose: 100.0 mg/kg/injection, schedule: Q01DX009 (ip), vehicle: Klucel (hydroxypropylcellulose) (HPC)
[10] = dose: 100.0 mg/kg/injection, schedule: Q04DX003 (ip), vehicle: Klucel (hydroxypropylcellulose) (HPC)
[11] = dose: 200.0 mg/kg/injection, schedule: Q01DX009 (ip), vehicle: Klucel (hydroxypropylcellulose) (HPC)
[12] = dose: 200.0 mg/kg/injection, schedule: Q04DX003 (ip), vehicle: Klucel (hydroxypropylcellulose) (HPC)
[13] = dose: 400.0 mg/kg/injection, schedule: Q01DX009 (ip), vehicle: Klucel (hydroxypropylcellulose) (HPC)
[14] = dose: 400.0 mg/kg/injection, schedule: Q04DX003 (ip), vehicle: Klucel (hydroxypropylcellulose) (HPC)
[15] = dose: 100.0 mg/kg/injection, schedule: Q01DX009 (ip), vehicle: saline with Tween-80
[16] = dose: 200.0 mg/kg/injection, schedule: Q01DX009 (ip), vehicle: saline with Tween-80

Measured: T/C

CCC1C(=O)OC(=O)c2oc3ccc(Cl)cc3c21 (stereo not drawn)
inactive: [1] 100 % of control | [2] 102 % of control | dose: 400.0 mg/kg/injection, schedule: Q01DX001 (ip), vehicle: Klucel (hydroxypropylcellulose) (HPC) 94 % of control

CCN(CC)C(=O)N1CCN(c2ccc(OC)cc2)CC1
inactive: dose: 75.0 mg/kg/injection, schedule: Q01DX001 (ip), vehicle: saline 94 % of control | dose: 75.0 mg/kg/injection, schedule: Q04DX003 (ip), vehicle: saline 100 % of control | dose: 150.0 mg/kg/injection, schedule: Q01DX001 (ip), vehicle: saline 100 % of control | dose: 150.0 mg/kg/injection, schedule: Q04DX003 (ip), vehicle: saline 100 % of control | dose: 300.0 mg/kg/injection, schedule: Q01DX001 (ip), vehicle: saline 91 % of control | dose: 300.0 mg/kg/injection, schedule: Q04DX003 (ip), vehicle: saline 110 % of control

COc1cc2c(c(OC)c1OC)CCc1cnoc1-2
inactive: [3] 97 % of control | [4] 112 % of control | [5] 91 % of control

O=C(O)C(F)(F)C(F)(F)F.[Ag]
inactive: dose: 75.0 mg/kg/injection, schedule: Q01DX001 (ip), vehicle: acetone 87 % of control

O=C(OCC1OC(OC(=O)c2ccccc2)C(OC(=O)c2ccccc2)C(OC(=O)c2ccccc2)C1OC(=O)c1ccccc1)c1ccccc1 (stereo not drawn)
inactive: [6] 98 % of control | [7] 98 % of control | [8] 106 % of control

Nc1cc2ccc3ccccc3c2c2ccccc12
inactive: [1] 110 % of control | dose: 130.0 mg/kg/injection, schedule: Q01DX001 (ip), vehicle: Klucel (hydroxypropylcellulose) (HPC) 94 % of control

CC1CCCC(C)N1NC(=O)NCCCl (stereo not drawn)
inactive: [9] 100 % of control | [10] 100 % of control | [11] 102 % of control | [12] 100 % of control | [13] 102 % of control | [14] 97 % of control

C1CSC2(CCC(C3CCC4(CC3)SCCS4)CC2)S1 (stereo not drawn)
inactive: dose: 75.0 mg/kg/injection, schedule: Q01DX009 (ip), vehicle: saline 92 % of control | [6] 88 % of control | dose: 150.0 mg/kg/injection, schedule: Q01DX009 (ip), vehicle: saline 97 % of control | [7] 91 % of control | dose: 300.0 mg/kg/injection, schedule: Q01DX009 (ip), vehicle: saline 87 % of control | [8] 93 % of control

CC(=O)c1cccc(NC(=O)OCC2CC3C=CC2C3)c1 (stereo not drawn)
inactive: [9] 112 % of control | [11] 104 % of control | [13] 103 % of control

CCOC(=O)c1[nH]c2ccccc2c1CN(CCCl)CCCl
inactive: dose: 2.5 mg/kg/injection, schedule: Q01DX Z (ip), vehicle: saline 107 % of control | dose: 5.0 mg/kg/injection, schedule: Q01DX Z (ip), vehicle: saline 108 % of control | dose: 10.0 mg/kg/injection, schedule: Q01DX Z (ip), vehicle: other 120 % of control | dose: 10.0 mg/kg/injection, schedule: Q01DX Z (ip), vehicle: saline 120 % of control | dose: 20.0 mg/kg/injection, schedule: Q01DX Z (ip), vehicle: other 122 % of control

COCC1OC(n2cnc3c(N(C)C)ncnc32)C(OC)C1OC (stereo not drawn)
inactive: dose: 50.0 mg/kg/injection, schedule: Q01DX005 (ip), vehicle: saline 112 % of control | dose: 100.0 mg/kg/injection, schedule: Q01DX005 (ip), vehicle: saline 102 % of control | dose: 200.0 mg/kg/injection, schedule: Q01DX005 (ip), vehicle: saline 96 % of control

Cc1ccc(S(=O)(=O)OCC(O)C2OCOC3COCOC32)cc1 (stereo not drawn)
inactive: [1] 97 % of control | [2] 101 % of control

COC(=O)C1C(c2ccc(-c3ccccc3)cc2)N1C(C)C (stereo not drawn)
inactive: [10] 101 % of control | [12] 95 % of control | [14] 98 % of control

O=C1c2ccccc2C(C(O)(C(F)(F)F)C(F)(F)F)c2ccccc21
inactive: dose: 100.0 mg/kg/injection, schedule: Q04DX003 (ip), vehicle: saline with Tween-80 92 % of control | dose: 200.0 mg/kg/injection, schedule: Q04DX003 (ip), vehicle: saline with Tween-80 97 % of control

COc1ccc(/C(C)=N\NC(N)=O)cc1
inactive: dose: 50.0 mg/kg/injection, schedule: Q04DX002 (ip), vehicle: Klucel (hydroxypropylcellulose) (HPC) 111 % of control | [3] 105 % of control | [4] 94 % of control | [5] 99 % of control

CCCCCC#CC(=O)OCC
inactive: [15] 100 % of control | [16] 89 % of control

Cc1[nH]c(=S)sc1C
inactive: dose: 50.0 mg/kg/injection, schedule: Q01DX001 (ip), vehicle: carboxymethylcellulose (CMC) 100 % of control | dose: 50.0 mg/kg/injection, schedule: Q01DX009 (ip), vehicle: saline 97 % of control | dose: 50.0 mg/kg/injection, schedule: Q04DX003 (ip), vehicle: saline 92 % of control | dose: 100.0 mg/kg/injection, schedule: Q01DX001 (ip), vehicle: carboxymethylcellulose (CMC) 88 % of control | dose: 100.0 mg/kg/injection, schedule: Q01DX009 (ip), vehicle: saline 97 % of control | dose: 100.0 mg/kg/injection, schedule: Q04DX003 (ip), vehicle: saline 101 % of control | dose: 200.0 mg/kg/injection, schedule: Q04DX003 (ip), vehicle: saline 88 % of control

N#CCc1ccc(N=Cc2ccc([N+](=O)[O-])s2)cc1
inactive: dose: 25.0 mg/kg/injection, schedule: Q04DX003 (ip), vehicle: saline with Tween-80 102 % of control | dose: 50.0 mg/kg/injection, schedule: Q04DX003 (ip), vehicle: saline with Tween-80 90 % of control

COC(C)(C)C(N)C(=O)O (stereo not drawn)
inactive: dose: 100.0 mg/kg/injection, schedule: Q01DX001 (ip), vehicle: other 102 % of control | dose: 100.0 mg/kg/injection, schedule: Q04DX003 (ip), vehicle: other 120 % of control | dose: 200.0 mg/kg/injection, schedule: Q01DX001 (ip), vehicle: other 102 % of control | dose: 200.0 mg/kg/injection, schedule: Q04DX003 (ip), vehicle: other 114 % of control | dose: 400.0 mg/kg/injection, schedule: Q01DX001 (ip), vehicle: other 102 % of control | dose: 400.0 mg/kg/injection, schedule: Q04DX003 (ip), vehicle: other 96 % of control

CCOC(=O)C1CCCC23CC(CC12)C(C)(C)C3Br (stereo not drawn)
inactive: [9] 100 % of control | [10] 94 % of control | [11] 94 % of control | [12] 95 % of control | [13] 94 % of control | [14] 103 % of control

CC(C)C(Br)C(=O)NC(Cc1ccccc1)C(=O)O (stereo not drawn)
inactive: [15] 96 % of control | [16] 96 % of control | dose: 400.0 mg/kg/injection, schedule: Q01DX009 (ip), vehicle: saline with Tween-80 92 % of control

O=C(O)/C=C\c1ccccc1
inactive: dose: 100.0 mg/kg/injection, schedule: Q01DX009 (ip), vehicle: other 100 % of control | dose: 200.0 mg/kg/injection, schedule: Q01DX009 (ip), vehicle: other 95 % of control

Cc1cc(-c2ccccc2O)nc(N(C)CC(=O)O)n1
inactive: [3] 94 % of control | [4] 98 % of control | [5] 96 % of control
